The source of these data is patent US20120232127A1, “REGULATION OF NEUROTRANSMITTER RELEASE THROUGH ANION CHANNELS” (KOREA INSTITUTE OF SCIENCE AND TECHNOLOGY, priority 2008, published 2012).

Entries after “also recorded” stand apart in the source; their conditions may differ.

Test [1] concerns Ca2+-activated anion channels (CAACs). Briefly: Gramicidin-D perforated patch clamp of TFLLR-induced inward current in cultured astrocytes. The class given is cell-based, mouse. As to the method:
(§1) The External solution was comprised of (in mM) 150 NaCl, 10 HEPES, 3 KCl, 2 CaCl2, 2 MgCl2, 5.5 glucose, at pH 7.3 (˜320 mOsm). For voltage clamp recordings, the internal solution contained 25 μg/ml gramicidin D and (in mM) 75 Cs2SO4, 10 NaCl, 0.1 CaCl2, and 10 HEPES, at pH 7.1 (˜310 mOsm). For current clamp recordings, the internal solution contained 25 μg/ml gramicidin D and (in mM) 75 K2SO4, 10 KCl, 0.1 CaCl2, and 10 HEPES, at pH 7.1 (˜310 mOsm). Pipette resistances ranged from 5 to 8 MΩ. For perforated patch clamp, it took 20 to 30 min to achieve acceptable perforation, with final series resistances ranging from 15 to 40 MΩ.
(§2) To test if activation of PAR1 by its specific agonist (e.g., TFLLR) causes any change in membrane conductance that might contribute to glutamate release from astrocytes, the whole cell currents and intracellular Ca^2+ responses in cultured astrocytes under gramicidin-D perforated patch configuration were simultaneously recorded (FIG. 1a). This technique minimized dialysis of intracellular ions.
On the technique in general: The patch-clamp technique gives a direct electrical read-out from membranes.

Test [2] deals with intracellular Ca2+ in cultured astrocytes. Briefly: Ca2+ imaging of TFLLR-induced [Ca2+]i transient in cultured astrocytes. Format: cell-based, mouse. How it is done: as §1, §2
Test [3] addresses T1, Ca2+-activated anion channels (CAACs) (Mus musculus, UniProt O88870, R255K).
T1 construct: endogenous in cells; host or cells: cultured mouse cortical astrocytes
T1 sequence (O88870 1-551 R255K): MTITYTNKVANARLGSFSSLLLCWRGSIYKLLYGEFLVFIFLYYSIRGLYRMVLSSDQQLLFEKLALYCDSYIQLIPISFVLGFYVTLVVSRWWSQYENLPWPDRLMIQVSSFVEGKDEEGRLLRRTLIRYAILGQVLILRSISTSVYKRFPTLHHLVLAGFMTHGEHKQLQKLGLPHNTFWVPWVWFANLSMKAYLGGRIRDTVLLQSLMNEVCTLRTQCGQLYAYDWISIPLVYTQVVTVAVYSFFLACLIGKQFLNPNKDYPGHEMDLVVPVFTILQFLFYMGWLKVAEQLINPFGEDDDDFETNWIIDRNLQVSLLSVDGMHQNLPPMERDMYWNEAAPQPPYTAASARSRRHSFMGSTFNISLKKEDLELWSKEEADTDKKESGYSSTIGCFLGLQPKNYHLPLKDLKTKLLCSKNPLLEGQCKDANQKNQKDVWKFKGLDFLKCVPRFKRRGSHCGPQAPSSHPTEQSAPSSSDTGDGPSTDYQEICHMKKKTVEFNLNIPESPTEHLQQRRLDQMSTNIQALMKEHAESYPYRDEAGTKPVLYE
Kind of test: Gramicidin-D perforated patch clamp of TFLLR-induced inward current in cultured astrocytes. The class given is cell-based. Conditions: for block of TFLLR-induced current: 100 μM blocker, cultured astrocytes; for block of the current by CAACs: astrocytes. How it is done: as §1, §2

In test [4] the test system is glutamate release from cultured astrocytes. Kind of test: TFLLR-evoked efflux of radiotracer from [3H]-glutamate-loaded cultures. The class given is cell-based.
In test [5] the target is T2, Ca2+-activated anion channels (CAACs) (Mus musculus, UniProt O88870).
T2 construct: endogenous in cells; host or cells: cultured mouse cortical astrocytes
T2 sequence (O88870 1-551 R255K): T1 sequence (O88870 1-551 R255K)
Briefly: Gramicidin-D perforated patch clamp of TFLLR-induced inward current in cultured astrocytes. Conditions: cultured astrocytes, voltage-independent block. Format: cell-based. As to the method:
as §1, §2

The target of test [6] is T3, astrocytic CAACs (Mus musculus, UniProt O88870, R255K).
T3 construct: endogenous in cells; host or cells: cultured mouse cortical astrocytes
T3 sequence (O88870 1-551 R255K): T1 sequence (O88870 1-551 R255K)
Briefly: Whole-cell patch clamp, astrocytic CAAC current directly activated by 4.5 μM internal Ca2+. Format: cell-based. Conditions: internal solution with 4.5 μM Ca2+. As to the method:
Patch pipettes which have 3-6MΩ of resistance are filled with the standard intracellular solution. Current voltage curves were established by applying 100- or 200-ms-duration voltage ramps from −100 to +100 mV. […]. Data were acquired by an Axopatch 200A amplifier controlled by Clampex 9.0 via a Digidata 1322A data acquisition system (Molecular Devices). Experiments were conducted at room temperature (20˜24° C.). The standard pipette solution was comprised of (in mM) 146 CsCl, 2 MgCl2, 5 (Ca^2+)-EGTA, 8 HEPES, and 10 sucrose, at pH 7.3, adjusted with CsOH. The concentration of free [Ca^2+]i in the solution was determined (Kuruma, A. & Hartzell, H. C. Bimodal control of a Ca(^2+)-activated Cl(−) channel by difference Ca(^2+) signals. J Gen Physiol 115, 59-80 (2000), which is hereby incorporated by reference for all purposes as if fully set forth herein). The standard extracellular solution was comprised of (in mM) 140 NaCl, 5 KCl, 2 CaCl2, 1 MgCl2, 15 glucose, and 10 HEPES, with pH 7.3 as adjusted using NaOH.
Because CAACs can permeate large anions and could be directly activated by applying internal solutions with known Ca^2+ concentrations, it was tested whether astrocytic CAACs can permeate glutamate by directly applying internal solutions containing 4.5 μM of Ca^2+ at which level CAACs are maximally activated (FIG. 10).

The target of test [7] is T4, astrocytic CAAC / mBest1 channel (glutamate release) (Mus musculus, UniProt O88870, R255K).
T4 construct: endogenous in cells; host or cells: cultured mouse cortical astrocytes
T4 sequence (O88870 1-551 R255K): T1 sequence (O88870 1-551 R255K)
Kind of test: Sniffer patch: astrocyte to GluR1 (L497Y)-expressing HEK293T cell pairs, TFLLR-induced glutamate release. The class given is cell-based. Conditions: sniffer patch, cultured astrocytes as glutamate source. How it is done: The sniffer patch technique, which is used for determining whether or not one is permeable to glutamate, was performed as described in Lee, C. J. et al. Astrocytic control of synaptic NMDA receptors. J Physiol 581, 1057-81 (2007), which is hereby incorporated by reference for all purposes as if fully set forth herein.
2. In experiments using astrocyte-HEK293T cell pairs, the sniffer patch techniques used naïve, scrambled- or mBest1-specific shRNA expressing (with GFP) astrocytes as a glutamate source; and GluR1 (L497Y) expressing HEK293T cells (with DsRED) as a detector. After obtaining gigaohm sealing, GluR1 (L497Y)-expressing cell was firstly ruptured, and then counterpart astrocytes were pressure-applied with 500 uM of TFLLR to evoke an increase in astrocytic intracellular Ca^2+ and resulting glutamate release onto the adjacent HEK293T cells.
GluR1LY-expressing detector cells were patched with the pipette solution pH 7.3 containing 110 mM CsGluconate, 30 mM CsCl, 5 mM HEPES, 4 mM NaCl, 2 mM MgCl2, 5 mM EGTA, and 1 mM CaCl2. The percentage of GluR1 (L497Y)-mediated current to the full activation level was analyzed by dividing the current amplitude of GluR1 (L497Y) current obtained through sniffer patch measurement by that of fully activated GluR1 (L497Y) current in the same cells.
The glutamate release through astrocytic CAACs was examined by using “sniffer-patch” technique and recording real-time glutamate release from cultured astrocytes (FIG. 10a). Using this technique, the present inventors observed that TFLLR-induced astrocytic glutamate release into an adjacent HEK293T cells expressing the non-desensitizing AMPA receptor subunit GluR1 (L497Y) mutant evoked an inward current sensitive to AMPA receptor antagonists, which is interpreted to reflect release of glutamate. The effects of TFLLR on current responses in transfected HEK293T cells was blocked by the treatment of niflumic acid (% block by niflumic acid=66.6±5.7%, FIGS. 10d to 10f), which is consistent with the idea that astrocytic CAAC is permeable to glutamate.

Test [8] relates to evoked EPSPs in hippocampal slices. Briefly: Current clamp of evoked EPSPs, Schaffer collateral to CA1 pyramidal neuron synapse in hippocampal slices. Conditions: 30 μM niflumic acid. How it is done: To assess whether CAAC-dependent glutamate release in astrocytes occurs and enhances synaptic potentials in vivo, a series of current clamp experiments were carried out to directly measure the effects of CAAC-dependent glutamate release on the evoked EPSPs (eEPSPs) of the Schaffer collateral to CA1 pyramidal neuron synapse in hippocampal slices. Under the similar recording conditions as previously described in ‘Lee, C. J. et al. Astrocytic control of synaptic NMDA receptors.

Test [9] has as its system NMDA receptor (NMDAR). Briefly: Voltage clamp of NMDAR-mediated mEPSC decay and NMDAR-mediated current.
Test [10] relates to CAACs expressed in Xenopus laevis oocytes. Conditions: read-out: reported IC50 value for CAACs expressed in Xenopus laevis oocytes; cited from earlier work.
Where [11] appears, read: BAPTA-AM, 50 μM preincubation for 30 min.
The mark [12] stands for this setting: U73122 2 μM, preincubation 10 min.
Where [13] appears, read: thapsigargin 100 nM, preincubation 5 min.
The mark [14] stands for this setting: thapsigargin 100 nM, preincubation 5 min, listed as Thapsigargin.

With `CC(=O)OCOC(=O)CN(CC(=O)OCOC(C)=O)c1ccccc1OCCOc1ccccc1N(CC(=O)OCOC(C)=O)CC(=O)OCOC(C)=O` [BAPTA-AM], the “effect on TFLLR-induced current” value in test [1] (setting [11]) is recorded as “eliminated; also recorded: inhibition”. Also, the “effect on TFLLR-induced [Ca2+]i transient” value in test [2] (setting [11]) is “eliminated; also recorded: inhibition”.
As for `O=C(O)c1cc([N+](=O)[O-])ccc1NCCCc1ccccc1` [NPPB, 5-nitro-2(3-phenylpropylamino)-benzoic acid], the “block of TFLLR-induced current” value in [3] was “blocked”.
`COc1ccc2c(c1)CC[C@@H]1[C@@H]2CC[C@]2(C)[C@@H](NCCCCCCN3C(=O)C=CC3=O)CC[C@@H]12` [U73122]: the “effect on TFLLR-induced inward current” value in test [1] (setting [12]) is “reduced; also recorded: inhibition”. The “effect on TFLLR-induced [Ca2+]i increase” value in test [2] (setting [12]) was “reduced; also recorded: inhibition”.
`CC1(C)[C@@H](OC(=O)CCC(=O)O)CC[C@]2(C)[C@H]3C(=O)C=C4[C@@H]5C[C@@](C)(C(=O)O)CC[C@]5(C)CC[C@@]4(C)[C@]3(C)CC[C@@H]12` [carbenoxolone]: the “block of the current by CAACs” value in [3] (100 μM) is “did not block”.
On to `O=C(O)c1ccccc1Nc1cccc(C(F)(F)F)c1` [flufenamic acid], for which the “block of TFLLR-induced current” value in test [3] is given as “blocked”. In addition, the “inhibition of TFLLR-evoked efflux of radiotracer from [3H]-glutamate-loaded cultures” value in [4] is 57%.
`O=C(O)c1cccnc1Nc1cccc(C(F)(F)F)c1` [niflumic acid]: the IC50 – broadly, the point on the concentration scale where inhibition reaches its midpoint – is 9.8 µM in [5] and 10.1 µM in test [10]. For the same compound, the “block of TFLLR-induced current” value is “blocked; also recorded: inhibited” in [3] and “blocked” in test [3] (listed as Niflumic acid). Further, the “effect on TFLLR-induced increases in intracellular Ca2+” value in test [2] (100 μM niflumic acid, n=5) is recorded as “attenuated but did not completely block”. Further, in [6], the “block of directly activated non-desensitizing CAAC current” value is reported as “readily blocked”. Besides, the “inhibition of TFLLR-evoked efflux of radiotracer from [3H]-glutamate-loaded cultures” value in [4] was determined as 69%. In addition, the “% block of TFLLR effect on current responses in GluR1 (L497Y)-transfected HEK293T cells” value in test [7] worked out at 66.6±5.7%. Further, the “effect on TFLLR enhancement of eEPSP” value in test [8] is listed as “blocked; also recorded: not statistically significant”. In addition, the “effect on NMDAR-mediated current amplitude” value in test [9] is recorded as “minimally affected”. Besides, the “TFLLR-induced prolongation of slow NMDAR-mediated component of mEPSC decay” value in test [9] (voltage clamp) is “sensitive”.
On to `C/C=C(/C)C(=O)O[C@H]1C(C)=C2[C@H]([C@@H]1OC(=O)CCCCCCC)[C@@](C)(OC(C)=O)C[C@H](OC(=O)CCC)[C@@]1(O)[C@H]2OC(=O)[C@@]1(C)O` [thapsigargin], for which the entries for the “effect on TFLLR-induced inward current” value in [1] (setting [13]) and in test [1] (setting [14]) were “reduced” and “inhibition”, respectively. Besides, the “effect on TFLLR-induced [Ca2+]i increase” value is “reduced” in test [2] (setting [13]) and “inhibition” in test [2] (setting [14]).
For the compound chlorotoxin, in [3] (1 μM), the “block of the current by CAACs” value is “did not block”.
